The assay has as its target SARS-CoV-2 Mpro (Severe acute respiratory syndrome coronavirus 2, UniProt P0DTD1). In words: biochemical. The following applies: for inhibition at 20 µM: read-out: % inhibition at 20 μM; for IC50: IC50, enzyme 100 nM, substrate 20 μM, 10 min preincubation, pH 6.5; for fold less active than compound 13: IC50 compared with compound 13; for fold less active than the other (more active) diastereomer: between the two diastereomers of the same compound.

“And” between values parts separate entries of the source, which are not always exact repeats. Equal entries are not always repeated. Where only a bound is given, the exact number is not on record here.

On to `CC(C)(C)NC(=O)C(c1cccnc1)N(C(=O)C1OC1(C)C)c1ccc(C(C)(C)C)cc1` (stereo not shown) [Compound 40, N-(4-(tert-Butyl)phenyl)-N-(2-(tert-butylamino)-2-oxo-1-(pyridin-3-yl)ethyl)-3,3-dimethyloxirane-2-carboxamide], for which the inhibition at 20 µM was 31%.

As for `CC(C)(C)NC(=O)C(c1cccnc1)N(C(=O)CCl)c1ccc(N)cc1` (stereo not shown) [Compound 20, N-(4-Aminophenyl)-N-(2-(tert-butylamino)-2-oxo-1-(pyridin-3-yl)ethyl)-2-chloroacetamide], the inhibition at 20 µM stood at 12%.

`CC(C)(C)NC(=O)C(c1cccnc1)N(C(=O)CCl)c1ccc(NC(=O)C(Cl)Cl)cc1` (stereo not shown) [Compound 16, N-(tert-Butyl)-2-(2-chloro-N-(4-(2,2-dichloroacetamido)phenyl)acetamido)-2-(pyridin-3-yl)acetamide]: the IC50 was 3600 ± 190 nM and the “fold less active than compound 13” value is recorded as ~ 5 ×.

Turning to `O=C(CCl)Nc1cccc(N(C(=O)c2ccco2)C(C(=O)NCc2ccccc2)c2cccnc2)c1` (stereo not shown) [Compound 8, N-(2-(Benzylamino)-2-oxo-1-(pyridin-3-yl)ethyl)-N-(3-(2-chloroacetamido)phenyl)furan-2-carboxamide], the IC50 is approximately 20000 nM and the inhibition at 20 µM was 47%.

Regarding `O=C(CCl)Nc1ccc(N(C(=O)c2ccco2)C(C(=O)NCc2ccccc2)c2cccnc2)cc1` (stereo not shown) [Compound 5, N-(2-(Benzylamino)-2-oxo-1-(pyridin-3-yl)ethyl)-N-(4-(2-chloroacetamido)phenyl)furan-2-carboxamide], the half-inhibitory concentration (IC50) was approximately 20000 nM and the inhibition at 20 µM worked out at 47%.

In the case of `CC(C)(C)c1ccc(N(C(=O)CCl)C(C(=O)NCc2ccccc2)c2cccnc2)cc1` (stereo not shown) [Compound 23, N-Benzyl-2-(N-(4-(tert-butyl)phenyl)-2-chloroacetamido)-2-(pyridin-3-yl)acetamide], the inhibition at 20 µM is 41%.

Regarding `C=CC(=O)Nc1ccc(N(C(=O)c2ccco2)C(C(=O)NCc2ccccc2)c2cccnc2)cc1` (stereo not shown) [Compound 7, N-(4-Acrylamidophenyl)-N-(2-(benzylamino)-2-oxo-1-(pyridin-3-yl)ethyl)furan-2-carboxamide], the inhibition at 20 µM was found to be 22%.

Compound `CC(C)(C)NC(=O)C(c1cccnc1)N(C(=O)CCl)c1cccc(NC(=O)CCl)c1` (stereo not shown) [Compound 18, N-(tert-Butyl)-2-(2-chloro-N-(3-(2-chloroacetamido)phenyl)acetamido)-2-(pyridin-3-yl)acetamide] returned an IC50 of 3600 ± 600 nM.

Consider `O=C(Nc1cccc(N(C(=O)c2ccco2)C(C(=O)NCc2ccccc2)c2cccnc2)c1)C(Cl)Cl` (stereo not shown) [Compound 9, N-(2-(Benzylamino)-2-oxo-1-(pyridin-3-yl)ethyl)-N-(3-(2,2-dichloroacetamido)phenyl)furan-2-carboxamide], for which the inhibition at 20 µM turned out to be 20%.

`CC(=O)OCC(=O)N(c1ccc(C(C)(C)C)cc1)C(C(=O)NC(C)(C)C)c1cccnc1` (stereo not shown) [Compound 33, 2-((4-(tert-Butyl)phenyl)(2-(tert-butylamino)-2-oxo-1-(pyridin-3-yl)ethyl)amino)-2-oxoethyl acetate]: the inhibition at 20 µM worked out at 0%.

On to `CC(C)(C)NC(=O)C(c1cccnc1)N(C(=O)CCl)c1ccc(NC(=O)CCl)cc1` (stereo not shown) [Compound 15, N-(tert-Butyl)-2-(2-chloro-N-(4-(2-chloroacetamido)phenyl)acetamido)-2-(pyridin-3-yl)acetamide], for which the 50% inhibitory concentration (IC50) came out at 3200 ± 790 nM and the “fold less active than compound 13” value was ~ 5 ×.

As for `CC(C)(C)NC(=O)C(c1cccnc1)N(C(=O)CCl)c1ccc(-c2ccccc2)cc1` (stereo not shown) [Compound 14, N-([1,1’-Biphenyl]-4-yl)-N-(2-(tert-butylamino)-2-oxo-1-(pyridin-3-yl)ethyl)-2-chloroacetamide], half-maximal inhibition (IC50) required 950 ± 40 nM.

As to `CC1(C(=O)N(c2ccc(C(C)(C)C)cc2)C(C(=O)NC2CCCCC2)c2cccnc2)CO1` (stereo not shown) [Compound 37, N-(4-(tert-Butyl)phenyl)-N-(2-(cyclohexylamino)-2-oxo-1-(pyridin-3-yl)ethyl)-2-methyloxirane-2-carboxamide], the inhibition at 20 µM came out at 28%. The “activity reduction vs. compound 30” value (compared with more active diastereomer of 30) was more than 25 fold.

In the case of `C=CC(=O)N(c1ccc(C(C)(C)C)cc1)C(C(=O)NC1CCCCC1)c1cccnc1` (stereo not shown) [Compound 29, N-(4-(tert-Butyl)phenyl)-N-(2-(cyclohexylamino)-2-oxo-1-(pyridin-3-yl)ethyl)acrylamide], the inhibition at 20 µM came to 30%.

On to `CC(C)(C)NC(=O)C(c1cccnc1)N(C(=O)C(=O)Cc1ccccc1)c1ccc(C(C)(C)C)cc1` (stereo not shown) [Compound 31, N-(4-(tert-Butyl)phenyl)-N-(2-(tert-butylamino)-2-oxo-1-(pyridin-3-yl)ethyl)-2-oxo-3-phenylpropanamide], for which the “inhibitory activity against Mpro (in words)” value is “inactive” and the inhibition at 20 µM worked out at 0%.

For `C=CC(=O)Nc1cccc(N(C(=O)c2ccco2)C(C(=O)NCc2ccccc2)c2cccnc2)c1` (stereo not shown) [Compound 10, N-(3-Acrylamidophenyl)-N-(2-(benzylamino)-2-oxo-1-(pyridin-3-yl)ethyl)furan-2-carboxamide], the inhibition at 20 µM stood at 5%.

For the compound `CC(C)(C)NC(=O)C(c1cccnc1)N(C(=O)CO)c1ccc(C(C)(C)C)cc1` (stereo not shown) [Compound 32, N-(tert-Butyl)-2-(N-(4-(tert-butyl)phenyl)-2-hydroxyacetamido)-2-(pyridin-3-yl)acetamide], the inhibition at 20 µM stood at 21%.

Take `CC(C)(C)c1ccc(N(C(=O)C2CO2)C(C(=O)NCc2ccccc2)c2cccnc2)cc1` [(R, R)- and (S, S)-42, N-(2-(Benzylamino)-2-oxo-1-(pyridin-3-yl)ethyl)-N-(4-(tert-butyl)phenyl)oxirane-2-carboxamide]: the inhibition at 20 µM is 45%.

On to `CC(C)(C)NC(=O)C(c1cccnc1)N(C(=O)C1(C)CO1)c1ccc(C(C)(C)C)cc1` (stereo not shown) [Compound 41, N-(4-(tert-Butyl)phenyl)-N-(2-(tert-butylamino)-2-oxo-1-(pyridin-3-yl)ethyl)-2-methyloxirane-2-carboxamide], for which the inhibition at 20 µM stood at 22%.

The compound `CC(C)(C)c1ccc(N(C(=O)C2CO2)C(C(=O)NCc2ccccc2)c2cccnc2)cc1` [(R, S)- and (S, R)-42, N-(2-(Benzylamino)-2-oxo-1-(pyridin-3-yl)ethyl)-N-(4-(tert-butyl)phenyl)oxirane-2-carboxamide] registered an IC50 of 1600 ± 320 nM.

As for `CC1OC1C(=O)N(c1ccc(C(C)(C)C)cc1)C(C(=O)NC1CCCCC1)c1cccnc1` [(R, R, S)- and (S, S, R)-35, N-(4-(tert-Butyl)phenyl)-N-(2-(cyclohexylamino)-2-oxo-1-(pyridin-3-yl)ethyl)-3-methyloxirane-2-carboxamide], the “fold less active than the other (more active) diastereomer” value is reported as ~ 10 × and the inhibition at 20 µM is 42%.

In the case of `CC(C)(C)c1ccc(N(C(=O)CCl)C(C(=O)NC2CCCCC2)c2cccnc2)cc1` (stereo not shown) [Compound 26, N-(4-(tert-Butyl)phenyl)-2-chloro-N-(2-(cyclohexylamino)-2-oxo-1-(pyridin-3-yl)ethyl)acetamide], half-maximal inhibition (IC50) required 490 ± 220 nM.

With `CC(C)(C)NC(=O)C(c1cccnc1)N(C(=O)c1ccco1)c1ccc(CC2CO2)cc1` (stereo not shown) [Compound 4, N-(2-(tert-Butylamino)-2-oxo-1-(pyridin-3-yl)ethyl)-N-(4-(oxiran-2-ylmethyl)phenyl)furan-2-carboxamide], the inhibition at 20 µM was 10%.

Turning to `CC(C)(C)c1ccc(N(C(=O)C2CO2)C(C(=O)NC2CCCCC2)c2cccnc2)cc1` [(R, R)- and (S, S)-30, N-(4-(tert-Butyl)phenyl)-N-(2-(cyclohexylamino)-2-oxo-1-(pyridin-3-yl)ethyl)oxirane-2-carboxamide], the IC50 was found to be 9900 ± 1600 nM and the “fold less active than the other (more active) diastereomer” value was 13 ×.

`CC(C)(C)NC(=O)C(c1cccnc1)N(C(=O)CCl)c1cccc(NC(=O)C(Cl)Cl)c1` (stereo not shown) [Compound 19, N-(tert-Butyl)-2-(2-chloro-N-(3-(2,2-dichloroacetamido)phenyl)acetamido)-2-(pyridin-3-yl)acetamide] displayed an IC50 of 2200 ± 510 nM.

As to `CC(C)(C)NC(=O)C(c1cccnc1)N(C(=O)C1CO1)c1ccc(C(C)(C)C)cc1` [(R, R)- and (S, S)-38, N-(4-(tert-Butyl)phenyl)-N-(2-(tert-butylamino)-2-oxo-1-(pyridin-3-yl)ethyl)oxirane-2-carboxamide], the inhibition at 20 µM came to 21%.

Turning to `CC(C)(C)c1ccc(N(C(=O)CC#N)C(C(=O)NC2CCCCC2)c2cccnc2)cc1` (stereo not shown) [Compound 34, N-(4-(tert-Butyl)phenyl)-2-cyano-N-(2-(cyclohexylamino)-2-oxo-1-(pyridin-3-yl)ethyl)acetamide], the inhibition at 20 µM came to 28%.

Take `CC(C)(C)NC(=O)C(c1cccnc1)N(C(=O)C1CO1)c1ccc(C(C)(C)C)cc1` [(R, S)- and (S, R)-38, N-(4-(tert-Butyl)phenyl)-N-(2-(tert-butylamino)-2-oxo-1-(pyridin-3-yl)ethyl)oxirane-2-carboxamide]: the IC50 is 1200 nM and 1240 nM.

Compound `O=C(NCc1ccccc1)C(c1cccnc1)N(C(=O)c1ccco1)c1ccc(-c2ccccc2)cc1` (stereo not shown) [Compound 1, N-([1,1’-Biphenyl]-4-yl)-N-(2-(benzylamino)-2-oxo-1-(pyridin-3-yl)ethyl)furan-2-carboxamide] displayed a concentration for half-maximal inhibition (IC50) of 740 ± 70 nM.

With `CC1OC1C(=O)N(c1ccc(C(C)(C)C)cc1)C(C(=O)NC(C)(C)C)c1cccnc1` [(R, R, S)- and (S, S, R)-39, N-(4-(tert-Butyl)phenyl)-N-(2-(tert-butylamino)-2-oxo-1-(pyridin-3-yl)ethyl)-3-methyloxirane-2-carboxamide], the IC50 came to 5320 ± 640 nM.

Turning to `COc1ccc(N(C(=O)CCl)C(C(=O)NC(C)(C)C)c2cccnc2)cc1` (stereo not shown) [Compound 22, N-(tert-Butyl)-2-(2-chloro-N-(4-methoxyphenyl)acetamido)-2-(pyridin-3-yl)acetamide], the IC50 is 1600 nM and 1610 nM.

`O=C(Nc1ccc(N(C(=O)c2ccco2)C(C(=O)NCc2ccccc2)c2cccnc2)cc1)C(Cl)Cl` (stereo not shown) [Compound 6, N-(2-(Benzylamino)-2-oxo-1-(pyridin-3-yl)ethyl)-N-(4-(2,2-dichloroacetamido)phenyl)furan-2-carboxamide]: the inhibition at 20 µM worked out at 41%.

A word on the inhibition: it is the relative decrease from the control value, in per cent. A word on the IC50: it is the point on the concentration scale where inhibition reaches its midpoint. Low values mean inhibition by little substance, high ones a need for much substance.

The record behind these values is article PMC10922772 (ACS infectious diseases, 2024).
